Laboratory results published in patent US20090311217A1, “3-SUBSTITUTED-1H-INDOLE COMPOUNDS, THEIR USE AS MTOR KINASE AND PI3 KINASE INHIBITORS, AND THEIR SYNTHESES” (priority 2008, published 2009).

Tests used:
PI3K-alpha = PI3K-alpha (Homo sapiens, UniProt P42336); assay: PI3K-alpha fluorescence polarization assay; type: biochemical; details: read-out: PI3Kα Avg. IC50
PI3K-gamma = PI3K-gamma (Homo sapiens, UniProt P48736); assay: PI3K-gamma fluorescence polarization assay; type: biochemical; details: PI3Kγ Avg. IC50
Procedure: PI3K-Alpha, PI3K-Beta, PI3K-Gamma, and PI3K-delta Fluorescence Polarization Assay Protocols
PI3-Kinase reactions were performed in 5 mM HEPES, pH 7, 2.5 mM MgCl2, and 25 μM ATP, with diC8-PI(4,5)P2 (Echelon, Salt Lake City Utah) as substrate. Nunc 384-well black polypropylene fluorescent plates were used for PI3K assays. Reactions were quenched by the addition of EDTA to a final concentration of 10 mM. Final reaction volumes were 10 μl. For evaluation of PI3K inhibitors, 5 ng of enzyme (PI3K-alpha, beta, gamma, or delta) and 2.5 μM of substrate was used per […] reaction volume, and inhibitor concentrations ranged from 100 μM to 20 μM; the final level of DMSO in reactions never exceeded 2%. Reactions were allowed to proceed for one hour at 25° C. After 1 hour, GST-tagged GRP1 (general receptor for phosphoinositides) PH domain fusion protein was added to a final concentration of 100 nM, and BODIPY-TMRI(1,3,4,5)P4 (Echelon) was also added to a final concentration of 5 nM. Final sample volumes were 25 μl with a final DMSO concentration of 0.8%. Assay Plates were read on Perkin-Elmer Envision plate readers with appropriate filters for Tamra [BODIPY-TMRI(1,3,4,5)P4]. Data obtained were used to calculate enzymatic activity and enzyme inhibition by inhibitor compounds.

Chain of PI3K-gamma (P48736 whole entry, species assumed): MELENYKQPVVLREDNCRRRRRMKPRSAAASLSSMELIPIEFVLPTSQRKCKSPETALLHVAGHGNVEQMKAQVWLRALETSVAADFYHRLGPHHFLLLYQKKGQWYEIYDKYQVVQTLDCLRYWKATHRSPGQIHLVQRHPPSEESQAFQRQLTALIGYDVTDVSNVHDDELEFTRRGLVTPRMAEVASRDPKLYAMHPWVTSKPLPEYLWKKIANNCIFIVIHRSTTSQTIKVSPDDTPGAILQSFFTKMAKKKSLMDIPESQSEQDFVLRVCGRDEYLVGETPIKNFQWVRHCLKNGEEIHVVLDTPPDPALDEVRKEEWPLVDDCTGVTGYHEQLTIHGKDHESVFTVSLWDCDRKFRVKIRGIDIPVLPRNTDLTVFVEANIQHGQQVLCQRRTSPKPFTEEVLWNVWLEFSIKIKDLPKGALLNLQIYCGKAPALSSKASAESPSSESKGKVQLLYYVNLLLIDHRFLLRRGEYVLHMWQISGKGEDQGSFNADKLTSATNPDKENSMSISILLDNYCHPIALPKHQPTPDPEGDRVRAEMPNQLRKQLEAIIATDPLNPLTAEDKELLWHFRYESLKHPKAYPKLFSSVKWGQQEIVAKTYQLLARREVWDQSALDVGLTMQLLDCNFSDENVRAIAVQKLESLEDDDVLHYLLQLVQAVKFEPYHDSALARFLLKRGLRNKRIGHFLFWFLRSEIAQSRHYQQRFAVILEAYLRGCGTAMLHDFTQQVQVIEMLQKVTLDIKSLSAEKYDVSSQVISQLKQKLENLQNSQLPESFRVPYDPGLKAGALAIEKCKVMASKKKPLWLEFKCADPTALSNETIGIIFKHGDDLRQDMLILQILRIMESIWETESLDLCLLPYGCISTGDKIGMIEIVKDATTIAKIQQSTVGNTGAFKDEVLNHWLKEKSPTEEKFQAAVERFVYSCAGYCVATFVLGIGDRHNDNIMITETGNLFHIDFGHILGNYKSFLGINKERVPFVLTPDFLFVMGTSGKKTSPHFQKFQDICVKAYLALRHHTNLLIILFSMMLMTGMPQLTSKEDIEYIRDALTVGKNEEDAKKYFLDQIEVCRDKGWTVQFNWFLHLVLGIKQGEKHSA
Chain of PI3K-alpha (P42336 whole entry, species assumed): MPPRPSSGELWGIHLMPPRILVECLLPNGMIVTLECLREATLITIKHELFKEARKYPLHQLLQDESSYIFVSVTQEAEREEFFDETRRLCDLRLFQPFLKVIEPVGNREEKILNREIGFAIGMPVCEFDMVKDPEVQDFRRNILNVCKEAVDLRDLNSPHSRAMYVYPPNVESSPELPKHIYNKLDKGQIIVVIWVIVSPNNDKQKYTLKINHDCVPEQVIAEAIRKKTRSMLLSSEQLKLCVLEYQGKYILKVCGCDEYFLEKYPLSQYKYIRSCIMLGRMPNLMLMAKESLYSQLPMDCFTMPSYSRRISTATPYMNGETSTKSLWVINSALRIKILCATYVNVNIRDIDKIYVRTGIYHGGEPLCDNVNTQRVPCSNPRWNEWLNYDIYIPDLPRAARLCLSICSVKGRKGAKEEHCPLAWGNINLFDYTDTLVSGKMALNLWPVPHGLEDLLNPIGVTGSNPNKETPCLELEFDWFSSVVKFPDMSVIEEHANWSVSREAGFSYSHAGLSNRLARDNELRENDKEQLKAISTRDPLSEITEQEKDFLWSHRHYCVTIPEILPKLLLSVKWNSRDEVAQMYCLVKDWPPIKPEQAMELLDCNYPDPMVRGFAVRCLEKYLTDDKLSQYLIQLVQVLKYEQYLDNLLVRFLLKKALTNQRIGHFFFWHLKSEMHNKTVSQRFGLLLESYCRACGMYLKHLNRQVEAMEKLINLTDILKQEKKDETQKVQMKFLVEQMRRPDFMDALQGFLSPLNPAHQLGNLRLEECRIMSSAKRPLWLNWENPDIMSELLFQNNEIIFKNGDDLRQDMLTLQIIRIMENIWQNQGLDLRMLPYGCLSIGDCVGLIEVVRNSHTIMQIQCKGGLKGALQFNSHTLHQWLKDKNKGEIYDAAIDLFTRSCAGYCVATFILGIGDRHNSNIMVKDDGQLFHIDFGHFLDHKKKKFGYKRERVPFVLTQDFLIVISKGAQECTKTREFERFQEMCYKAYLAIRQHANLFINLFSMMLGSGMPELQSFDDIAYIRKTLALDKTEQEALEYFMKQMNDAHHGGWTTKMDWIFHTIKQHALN
Chain of PI3K-alpha (P27986 whole entry partner, species assumed): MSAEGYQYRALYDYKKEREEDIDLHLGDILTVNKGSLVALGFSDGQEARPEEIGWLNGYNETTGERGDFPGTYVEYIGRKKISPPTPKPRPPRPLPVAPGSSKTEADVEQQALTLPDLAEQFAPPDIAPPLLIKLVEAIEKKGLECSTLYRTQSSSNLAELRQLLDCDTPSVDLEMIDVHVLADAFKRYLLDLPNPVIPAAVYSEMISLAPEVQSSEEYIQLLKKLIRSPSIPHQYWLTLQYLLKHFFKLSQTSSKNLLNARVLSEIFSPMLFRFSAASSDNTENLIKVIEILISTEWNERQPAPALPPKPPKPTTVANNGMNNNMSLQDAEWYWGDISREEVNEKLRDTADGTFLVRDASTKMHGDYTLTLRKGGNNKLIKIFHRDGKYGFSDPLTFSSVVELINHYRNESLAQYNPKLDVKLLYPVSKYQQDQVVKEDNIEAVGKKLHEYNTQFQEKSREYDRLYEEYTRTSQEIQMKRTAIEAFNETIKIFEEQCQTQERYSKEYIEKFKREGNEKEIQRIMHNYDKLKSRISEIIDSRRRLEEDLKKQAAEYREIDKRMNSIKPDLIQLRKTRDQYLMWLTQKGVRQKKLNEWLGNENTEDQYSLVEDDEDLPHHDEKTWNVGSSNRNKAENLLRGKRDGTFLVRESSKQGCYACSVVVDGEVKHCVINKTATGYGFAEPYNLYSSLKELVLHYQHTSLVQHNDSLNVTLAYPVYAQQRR

Compound	IC50 (PI3K-alpha)	IC50 (PI3K-gamma)
COc1ccc2[nH]cc(/C=C3\Oc4cc(O)cc(OC)c4C3=O)c2c1 [Compound 472, (2Z)-6-hydroxy-4-methoxy-2-[(5-methoxy-1H-indol-3-yl)methylene]-1-benzofuran-3(2H)-one]	163 nM	1130 nM
CCc1cc(OC)cc2c(/C=C3\Oc4cc(O)ccc4C3=O)cn(CCN3CCN(C)CC3)c12 [Compound 473, (2Z)-2-({7-ethyl-5-methoxy-1-[2-(4-methylpiperazin-1-yl)ethyl]-1H-indol-3-yl}methylene)-6-hydroxy-1-benzofuran-3(2H)-one]	162 nM	2610 nM
CCc1cc(OC)cc2c(/C=C3\Oc4cc(O)ccc4C3=O)cn(CCCC#N)c12 [Compound 474, 4-{7-ethyl-3-[(Z)-(6-hydroxy-3-oxo-1-benzofuran-2(3H)-ylidene)methyl]-5-methoxy-1H-indol-1-yl}butanenitrile]	246 nM	1390 nM
CCc1cc(OC)cc2c(/C=C3\Oc4cccc(O)c4C3=O)cn(CCCC#N)c12 [Compound 475, 4-{7-ethyl-3-[(Z)-(4-hydroxy-3-oxo-1-benzofuran-2(3H)-ylidene)methyl]-5-methoxy-1H-indol-1-yl}butanenitrile]	> 10000 nM	> 10000 nM
Cc1cccc2c1c(/C=C1\Oc3cc(O)cc(O)c3C1=O)c(-c1ccccc1)n2C [Compound 476, (2Z)-2-[(1,4-dimethyl-2-phenyl-1H-indol-3-yl)methylene]-4,6-dihydroxy-1-benzofuran-3(2H)-one]	412 nM	1640 nM
O=C1/C(=C/c2cn(CCO)c3cccc(-c4ccccc4)c23)Oc2cc(O)cc(O)c21 [Compound 478, (2Z)-4,6-dihydroxy-2-{[1-(2-hydroxyethyl)-4-phenyl-1H-indol-3-yl]methylene}-1-benzofuran-3(2H)-one]	1200 nM	1740 nM
COc1cc(-c2ccncc2)c2[nH]cc(/C=C3\Oc4cc(O)ccc4C3=O)c2c1 [Compound 479, (2Z)-6-hydroxy-2-[(5-methoxy-7-pyridin-4-yl-1H-indol-3-yl)methylene]-1-benzofuran-3(2H)-one]	298 nM	> 10000 nM
COc1cc(-c2cccnc2)c2[nH]cc(/C=C3\Oc4cc(O)ccc4C3=O)c2c1 [Compound 480, (2Z)-6-hydroxy-2-[(5-methoxy-7-pyridin-3-yl-1H-indol-3-yl)methylene]-1-benzofuran-3(2H)-one]	81.5 nM	3510 nM
COc1cccc2c1O/C(=C\c1c[nH]c3ccc(Br)cc13)C2=O [Compound 481, (2Z)-2-[(5-bromo-1H-indol-3-yl)methylene]-7-methoxy-1-benzofuran-3(2H)-one]	> 10000 nM	> 10000 nM
COc1ccc2[nH]cc(C=C3Oc4c(O)cccc4C3=O)c2c1 [Compound 482, 7-hydroxy-2-[(5-methoxy-1H-indol-3-yl)methylene]-1-benzofuran-3(2H)-one]	> 10000 nM	> 10000 nM

Next, values leading:

IC50 (PI3K-alpha)	IC50 (PI3K-gamma)	Compound
9860 nM	5220 nM	COc1ccc2[nH]cc(C=C3Oc4c(OC)cccc4C3=O)c2c1 [Compound 483, 7-methoxy-2-[(5-methoxy-1H-indol-3-yl)methylene]-1-benzofuran-3(2H)-one]
1660 nM	> 10000 nM	COc1ccc2[nH]cc(/C=C3\Oc4ccc(NC(=O)Nc5cccnc5)cc4C3=O)c2c1 [Compound 484, 1-{(2Z)-2-[(5-methoxy-1H-indol-3-yl)methylene]-3-oxo-2,3-dihydro-1-benzofuran-5-yl}-3-pyridin-3-ylurea]
> 10000 nM	> 10000 nM	COc1ccc2[nH]cc(/C=C3\Oc4ccc(NC(=O)Nc5ccccc5)cc4C3=O)c2c1 [Compound 485, 1-{(2Z)-2-[(5-methoxy-1H-indol-3-yl)methylene]-3-oxo-2,3-dihydro-1-benzofuran-5-yl}-3-phenylurea]
1460 nM	1610 nM	COc1ccc2[nH]cc(/C=C3\Oc4ccc(NC(=O)NC(C)C)cc4C3=O)c2c1 [Compound 486, 1-isopropyl-3-{(2Z)-2-[(5-methoxy-1H-indol-3-yl)methylene]-3-oxo-2,3-dihydro-1-benzofuran-5-yl}urea]
10200 nM	> 10000 nM	CCCCNC(=O)Nc1ccc2c(c1)C(=O)/C(=C/c1c[nH]c3ccc(OC)cc13)O2 [Compound 487, 1-butyl-3-{(2Z)-2-[(5-methoxy-1H-indol-3-yl)methylene]-3-oxo-2,3-dihydro-1-benzofuran-5-yl}urea]
> 10000 nM	> 10000 nM	COc1ccc2[nH]cc(/C=C3\Oc4ccc(NC(=O)NC5CCCCC5)cc4C3=O)c2c1 [Compound 488, 1-cyclohexyl-3-{(2Z)-2-[(5-methoxy-1H-indol-3-yl)methylene]-3-oxo-2,3-dihydro-1-benzofuran-5-yl}urea]
6220 nM	> 10000 nM	CCNC(=O)Nc1ccc2c(c1)C(=O)/C(=C/c1c[nH]c3ccc(OC)cc13)O2 [Compound 489, 1-ethyl-3-{(2Z)-2-[(5-methoxy-1H-indol-3-yl)methylene]-3-oxo-2,3-dihydro-1-benzofuran-5-yl}urea]
674 nM	> 10000 nM	COC(=O)NC(=O)Nc1ccc2c(c1)C(=O)/C(=C/c1c[nH]c3ccc(OC)cc13)O2 [Compound 490, methyl ({(2Z)-2-[(5-methoxy-1H-indol-3-yl)methylene]-3-oxo-2,3-dihydro-1-benzofuran-5-yl}carbamoyl)carbamate]
465 nM	1310 nM	COc1ccc(NC(=O)Nc2ccc3c(c2)C(=O)/C(=C/c2c[nH]c4ccc(OC)cc24)O3)cc1 [Compound 491, 1-{(2Z)-2-[(5-methoxy-1H-indol-3-yl)methylene]-3-oxo-2,3-dihydro-1-benzofuran-5-yl}-3-(4-methoxyphenyl)urea]
656 nM	> 10000 nM	COc1ccc2[nH]cc(/C=C3\Oc4ccc(NC(=O)Nc5ccc(N(C)C)cc5)cc4C3=O)c2c1 [Compound 492, 1-[4-(dimethylamino)phenyl]-3-{(2Z)-2-[(5-methoxy-1H-indol-3-yl)methylene]-3-oxo-2,3-dihydro-1-benzofuran-5-yl}urea]
3 nM	15.5 nM	CCc1c(/C=C2\Oc3cc(O)cc(O)c3C2=O)c2cc(OC)ccc2n1CCCC#N [Compound 493, 4-{3-[(Z)-(4,6-dihydroxy-3-oxo-1-benzofuran-2(3H)-ylidene)methyl]-2-ethyl-5-methoxy-1H-indol-1-yl}butanenitrile]
> 10000 nM	9350 nM	COc1ccc2[nH]cc(C=C3Oc4cc(OS(=O)(=O)C(F)(F)F)ccc4C3=O)c2c1 [Compound 494, 2-[(5-methoxy-1H-indol-3-yl)methylene]-3-oxo-2,3-dihydro-1-benzofuran-6-yl trifluoromethanesulfonate]
> 10000 nM	> 10000 nM	COc1ccc2[nH]cc(C=C3Oc4cc(C(N)=O)ccc4C3=O)c2c1 [Compound 495, 2-[(5-methoxy-1H-indol-3-yl)methylene]-3-oxo-2,3-dihydro-1-benzofuran-6-carboxamide]
1040 nM	4770 nM	Cn1cc(/C=C2\Oc3cc(O)cc(O)c3C2=O)c2c(N3CCOCC3)cccc21 [Compound 496, (2Z)-4,6-dihydroxy-2-[(1-methyl-4-morpholin-4-yl-1H-indol-3-yl)methylene]-1-benzofuran-3(2H)-one]
